Molecules are shown by their SMILES.

Results on one compound are retold here after US11166942B2 (PRAXIS BIOTECH LLC, priority 2018, dated 2021).

One experiment relates to ATF4. Nature of the experiment: ATF4 inhibition assay under Aβ stimulation (SH-SY5Y cells with 7PA2 CHO conditioned media). The format is cell-based, human. The note with it: 16 hours, 1 nM to 10 μM compound (FIG. 7). On the procedure: Chinese hamster ovary (CHO) cells that stably express human APP751 incorporating the familial Alzheimer's disease mutation V717F were used as a source of […] monomer and low-n oligomers. These cells, referred to as 7PA2 CHO cells, were cultured in 100 mm dishes with Dulbecco's modified Eagle's medium (DMEM) containing 10% fetal bovine serum, 2 mM L-glutamine, 100 U/ml penicillin, and 100 μg/ml […], streptomycin and […] G418. Upon reaching 90-100% confluency, cells were washed with 5 mL of glutamine- and serum-free DMEM and incubated for approximately 16 h in 5 mL of the same DMEM. Conditioned media (CM) was collected.
SH-SY5Y cells were maintained at 37° C. and 5% CO2 in RPMI 1640 media supplemented with 10% fetal bovine serum (FBS), penicillin and streptomycin. After reaching 80% of confluence, cells were detached and seeded on 6 well plates in complete media, allowed to recover 48 h and treated for 16 hours with CM from WT CHO cells (wtCM) or 7PA2 CHO cells (7PA2CM) in the presences of various concentrations ranging from 1 nM to 10 μM of compound 58.
After 16 hours treatment, culture media were removed and cells were lysed with SDS-PAGE lysis buffer. Lysates were transferred to 1.5 ml tubes and sonicated for 3 min. Total protein amount was quantified using BCA Protein Assay Kit (Pierce). Equal amount of proteins (30 μg) were loaded on SDS-PAGE gels. […]

The test system of a further experiment is CHO cells. Nature of the experiment: Protein production by transient gene expression (GFP in CHO cells). The format is cell-based, Chinese hamster. The note with it: pIRES2-AcGFP1, 1 μM or 5 μM, 24 hours (FIGS. 12A, 12B). On the procedure:
CHO cells were maintained at 37° C. and 5% CO2 in DMEM supplemented with 10% fetal bovine serum (FBS), 2 mM L-glutamine, 100 U/ml penicillin, and 100 μg/ml streptomycin. After reaching 80% of confluence, cells were detached and seeded on 6-well plates in complete media and allowed to recover for 48 h. Cells were then washed three times with PBS and transfected with 1 μg of plasmid pIRES2-AcGFP1 (Clonetech 632435) using Lipofectamine LTX (Thermofisher Scientific) according to manufacturer instructions. Transfection media was supplemented with culture medium alone (vehicle) or 1 μM or 5 μM compound 58 in culture medium.
After 24 hours treatment, culture media were removed and cells were lysed with SDS-PAGE lysis buffer. Lysates were transferred to 1.5 ml tubes and sonicated for 3 min. Total protein amount was quantified using BCA Protein Assay Kit (Pierce). Equal amount of proteins (30 μg) was loaded on SDS-PAGE gels. […]
GFP (cell Signaling) and β-actin (Sigma-Aldrich) antibodies were used as primary antibodies. […] Quantification of protein bands was done by densitometry using ImageJ software.
The levels were normalized to β-actin expression and percentage was calculated as the percent relative to the expression of GFP in untreated condition (Veh) which corresponds to 100%.

The test system of the next experiment is MEF cells. Description: Frontotemporal dementia cellular model (progranulin knockdown in MEF cells). The class given is cell-based. Particulars: PGRN siRNA mix, 1 μM or 5 μM, 48 hours (FIG. 13). The procedure: MEF cells were maintained at 37° C. and 5% CO2 in DMEM supplemented with 10% fetal bovine serum (FBS), 2 mM L-glutamine, 100 U/ml penicillin, and 100 μg/ml streptomycin. After reaching 80% of confluence, cells were detached and seeded on 6-well plates in complete media at a density of 3×10^5 cells/well and allowed to recover for 48 h. To perform a knockdown expression of the progranulin protein, cells were then washed three times with PBS and treated with small interference RNA (siRNA) mix, that target progranulin (PGRN) gene (Qiagen FlexiTube siRNA mix, Cat No 1027416), according to manufacturer instructions.
Transfection media with siRNA mix was supplemented with OPTIMEM medium alone (GRN7) or 1 μM or 5 μM compound 58 in OPTIMEM medium. Transfection media without siRNA mix (Veh) and cells cultured in OPTIMEM medium alone (Unt) were used as controls.
After 48 hours treatment, culture media were removed and cells were lysed with SDS-PAGE lysis buffer. Lysates were transferred to 1.5 ml tubes and sonicated for 3 min. Total protein amount was quantified using BCA Protein Assay Kit (Pierce). Equal amount of proteins (30 μg) was loaded on SDS-PAGE gels. […]
PGRN (R&D Systems) and β-actin (Sigma-Aldrich) antibodies were used as primary antibodies. […] Quantification of protein bands was done by densitometry using ImageJ software. […]

Turning to `O=C(NN1CCN(C[C@@H](O)COc2ccc(Cl)c(F)c2)CC1)c1ccc2cc(Cl)ccc2n1` [Compound 58, (R)-6-chloro-N-(4-(3-(4-chloro-3-fluorophenoxy)-2-hydroxypropyl)piperazin-1-yl)quinoline-2-carboxamide], the “ATF4 expression in the presence of Aβ oligomers (immunoblot)” value with ATF4 is “inhibits the expression of ATF4 in the presence of Aβ oligomers treatment in a dose dependent manner”. Further, in the experiment with CHO cells, the “expression of GFP after transient transfection” value is listed as “increased expression of GFP”. Further, the “expression of PGRN (progranulin) in siRNA knockdown condition” value in the experiment with MEF cells is “increased expression of progranulin”.
